In the Deep4Chem optical property database:
Each block holds one compound with its values, some of them ahead of it.

Assay: solvent given as SMILES

- fluorescence lifetime (in ClCCl): 2.5 ns
SMILES: c1cc2ccc3ccc(OP4(Oc5ccc6ccc7cccc8ccc5c6c78)=NP(Oc5ccc6ccc7cccc8ccc5c6c78)(Oc5ccc6ccc7cccc8ccc5c6c78)=NP(Oc5ccc6ccc7cccc8ccc5c6c78)(Oc5ccc6ccc7cccc8ccc5c6c78)=N4)c4ccc(c1)c2c34

- fluorescence lifetime (in CC#N): 2.3 ns
SMILES: CC1=CC(/C=C/c2ccc(N(C)C)cc2)=[N+]2C1=C(c1ccc(C#CCO[C@@H]3O[C@H](CO)[C@@H](O)C(O)[C@H]3O)cc1)c1c(C)cc(/C=C/c3ccc(N(C)C)cc3)n1[B-]2(F)F (stereo partly drawn)

SMILES: O=c1c2cc(Cl)ccc2[nH]c2ccc(COO)cc12
- fluorescence lifetime (in O): 16.8 ns

SMILES: CCCCCCCCOC(=O)c1ccc(-c2cc3ccc4cc(-c5ccc(C(=O)OCCCCCCCC)cc5)cc5ccc(c2)c3c45)cc1
- fluorescence lifetime (in Cc1ccccc1): 49 ns

SMILES: Cc1cc(C)c(B(c2ccc(C#Cc3cc4ccc5cc(C#Cc6ccc(B(c7c(C)cc(C)cc7C)c7c(C)cc(C)cc7C)cc6)cc6ccc(c3)c4c56)cc2)c2c(C)cc(C)cc2C)c(C)c1
- fluorescence lifetime (in Cc1ccccc1): 58 ns

SMILES: CCN(CC)c1ccc(/C=C/c2ccc(-c3ccc(/C=C/c4ccc(N(CC)CC)cc4)s3)s2)cc1
- fluorescence lifetime (in C1CCOC1): 1.1 ns
- fluorescence lifetime (in CC#N): 1.14 ns
- fluorescence lifetime (in CC(C)=O): 1.11 ns
- fluorescence lifetime (in CN(C)C=O): 1.18 ns
- fluorescence lifetime (in Cc1ccccc1): 1.02 ns

- fluorescence lifetime (in C1CCOC1): 8.2 ns
SMILES: c1ccc(/C(=C(\c2ccccc2)c2cc(-c3ccc(-c4ccccc4)cc3)ccc2-c2ccc(-c3ccccc3)cc2)c2cc(-c3ccc(-c4ccccc4)cc3)ccc2-c2ccc(-c3ccccc3)cc2)cc1

- fluorescence lifetime (in ClCCl): 1.61 ns
SMILES: FC(F)(F)c1ccc(-n2c(-c3ccc(N(c4ccc(-c5ccc(N(c6ccc(-c7nc8c9ccccc9c9ccccc9c8n7-c7ccc(C(F)(F)F)cc7)cc6)c6ccc(-c7nc8c9ccccc9c9ccccc9c8n7-c7ccc(C(F)(F)F)cc7)cc6)cc5)cc4)c4ccc(-c5nc6c7ccccc7c7ccccc7c6n5-c5ccc(C(F)(F)F)cc5)cc4)cc3)nc3c4ccccc4c4ccccc4c32)cc1

- fluorescence lifetime (in C1CCOC1): 1.13 ns
SMILES: CC1=[N+]2C(=C(c3ccc(C(=C(c4ccccc4)c4ccccc4)c4ccccc4)cc3)c3ccc(C)n3[B-]2(F)F)C=C1

- fluorescence lifetime (in ClC(Cl)Cl): 3.11 ns
SMILES: CC1=CC(C)=[N+]2C1=C(c1ccc(I)cc1)c1c(C)cc(C)n1[B-]2(F)F

- fluorescence lifetime (in ClCCl): 1.86 ns
SMILES: COc1ccc2cc(/C=C/C3=[O+][B-](F)(F)OC(/C=C/c4ccc5cc(OC)ccc5c4)=C3c3ccccc3)ccc2c1

SMILES: N#CC(C#N)=C(/C=C/c1ccc(N(c2ccccc2)c2ccccc2)cc1)c1ccc2c3c(cccc13)CC2
- fluorescence lifetime (in C1CCOC1): 3.5 ns
- fluorescence lifetime (in CC#N): 1.22 ns
- fluorescence lifetime (in CC(C)=O): 1.04 ns
- fluorescence lifetime (in CCOC(C)=O): 3.01 ns
- fluorescence lifetime (in CN(C)C=O): 1.02 ns
- fluorescence lifetime (in CO): 2.1 ns
- fluorescence lifetime (in Cc1ccccc1): 2.26 ns
- fluorescence lifetime (in ClC(Cl)Cl): 6.54 ns

- fluorescence lifetime (in ClCCl): 8.3 ns
SMILES: COc1ccc(/C=C/c2nc(N3CCOCC3)c3c([n+]2[O-])CCCC3)cc1

- fluorescence lifetime (in ClCCl): 2.3 ns
SMILES: CCc1c(C)[nH]c(C2=[N+]3C(=Cc4c(C)c(CC)c(/C=C/c5ccc(N(C)C)cc5)n4[B-]3(F)F)c3ccccc32)c1C

- fluorescence lifetime (in O): 0.4 ns
SMILES: NC(=O)C1=CN([C@H]2C[C@H](O)[C@@H](COP(=O)([O-])OP(=O)([O-])OC[C@H]3O[C@@H](n4cnc5c(N)ncnc54)C[C@@H]3O)O2)C=CC1

- fluorescence lifetime (in C1CCOC1): 0.3 ns
SMILES: CN(C)c1ccc(C(=Cc2ccc(/C=C(\C#N)c3ccccc3)cc2)c2ccc(N(C)C)cc2)cc1

- fluorescence lifetime (in C1CCOC1): 0.25 ns
- fluorescence lifetime (in ClC(Cl)Cl): 0.9 ns
- fluorescence lifetime (in ClCCl): 0.38 ns
SMILES: COc1cc2cc(OC)c(C#Cc3ccc([N+](=O)[O-])cc3)cc2cc1C#Cc1ccc([N+](=O)[O-])cc1

SMILES: CC(=O)Nc1ccccc1C(=O)OC1CC(C)CCC1C(C)C (stereo not drawn)
- fluorescence lifetime (in C1CCCCC1): 4 ns
- fluorescence lifetime (in CC#N): 3.4 ns
- fluorescence lifetime (in CCO): 3.6 ns
- fluorescence lifetime (in Cc1ccccc1): 3.9 ns

- fluorescence lifetime (in ClCCl): 5.6 ns
SMILES: COc1ccc(C(=O)c2c(C)c3ccc4cccc5c6cccc7ccc2c(c76)c3c45)cc1

- fluorescence lifetime (in C1CCOC1): 0.21 ns
SMILES: CN(C)c1ccc(C2=Nc3scc(-c4ccc(N(C)C)cc4)[n+]3[B-](F)(F)O2)cc1

- fluorescence lifetime (in ClC(Cl)Cl): 0.38 ns
SMILES: CC1=CC(C)=[N+]2C1=C(c1ccc(I)cc1)c1c(C)cc(C)n1[B-]2(Oc1ccccc1)Oc1ccccc1

- fluorescence lifetime (in ClCCl): 3.8 ns
SMILES: C[Si]1(C)c2ccc(C#Cc3ccccc3)cc2C=Cc2cc(C#Cc3ccccc3)ccc21
